The values below are quoted from earlier work in patent publication US8815929B2, “Method and therapeutic/cosmetic topical compositions for the treatment of rosacea and skin erythema using α1-adrenoceptor agonists” (Allergan, Inc., priority 2004, dated 2014).

For data set [1] the following is noted: rabbits; injection subcutaneously.
The conditions of data set [2]: used intranasally and ophthalmically for decades.
The conditions of data set [3]: dog, cat, rabbit or mouse; dosages close to those used in man; manufacturers' report.
For data set [4] the following is noted: retrospective study in man.

Structures are written as SMILES. Structures can show the parent of a compound that is named as a salt.

Consider `Cc1cc(C(C)(C)C)c(O)c(C)c1CC1=NCCN1` [oxymetazoline, 2-(3-Hydroxy-2,6-dimethyl-4-t-butylbenzyl)-2-imidazoline hydrochloride], for which the “drug related abnormalities or effects on the offspring” value in data set [1] is given as “no drug related abnormalities or effects on the offspring were found”. Also, the systemic side effects entry in data set [2] is listed as “has not been reported to effect any systemic side effects”. Besides, the “organ damage or general toxicity” value in data set [3] is on record as “no significant organ damage or general toxicity”. The “association between the drug and congenital disorders” value in data set [4] was “no association was found”.
